# Results taken from the NIST ThermoML archive (doi:10.1016/j.fluid.2006.09.007).
# ± gives the expanded uncertainty stated by the source.
# Conditions: Liquid, Ebulliometric method (Recirculating still)
Compound,vapor or sublimation pressure (314 K) [kPa],vapor or sublimation pressure (317 K) [kPa],vapor or sublimation pressure (320 K) [kPa],vapor or sublimation pressure (323 K) [kPa],vapor or sublimation pressure (326 K) [kPa],vapor or sublimation pressure (329 K) [kPa],vapor or sublimation pressure (332 K) [kPa],vapor or sublimation pressure (335 K) [kPa],vapor or sublimation pressure (338 K) [kPa],vapor or sublimation pressure (315 K) [kPa],vapor or sublimation pressure (318 K) [kPa],vapor or sublimation pressure (321 K) [kPa],vapor or sublimation pressure (324 K) [kPa],vapor or sublimation pressure (327 K) [kPa],vapor or sublimation pressure (330 K) [kPa],vapor or sublimation pressure (333 K) [kPa],vapor or sublimation pressure (336 K) [kPa],vapor or sublimation pressure (339 K) [kPa],vapor or sublimation pressure (342 K) [kPa],vapor or sublimation pressure (345 K) [kPa]
CC(C)=O [acetone],57.96 ± 0.47,64.95 ± 0.49,72.6 ± 0.54,80.96 ± 0.58,90.08 ± 0.64,100 ± 0.69,110.78 ± 0.75,122.47 ± 0.81,135.11 ± 0.85,,,,,,,,,,,
CO [methanol],,,,,,,,,,38.33 ± 0.38,43.97 ± 0.4,50.29 ± 0.45,57.36 ± 0.5,65.25 ± 0.56,74.02 ± 0.62,83.76 ± 0.68,94.55 ± 0.76,106.47 ± 0.84,119.61 ± 0.92,134.07 ± 0.96
